Assay results reported in US20060217351A1, “Method for treating cardiovascular diseases” (priority 2003, published 2006).

Experiments:
[1] = test system: cerebral infarct; assay: embolic cerebral infarction model; assay type: in vivo; settings: rats
[2] = test system: platelet aggregation; assay: anti-platelet aggregation ability of active metabolite enantiomers; settings: enantiomers of active metabolite II
Description: The active metabolite is a mixture of four enantiomers each of which has shown dose dependent anti-platelet aggregation ability, and thus useful for the practice of the invention.

[3] = test system: platelet aggregation; assay: comparative study of inhibition of platelet aggregation; assay type: in vivo; settings: for inhibition of platelet aggregation: in thirty (30) minutes
[4] = test system: thrombus formation; settings: rats, p.o., cited from earlier work; for ED50, prevention of thrombus formation: arteriovenous shunt model
[5] = storage stability of crystals; assay type: physicochemical; settings: crystal form comparison

What does the source list for COC(=O)[C@H](c1ccccc1Cl)N1CCc2sccc2C1 [clopidogrel bisulfate]?
effect on total area of cerebral infarct [1]: similar, yet milder effect on cerebral infarcts; potency compared to compound of formula I (times less potent) [1]: about 10 times

Which anti-platelet aggregation ability [2] does the source give for O=C(O)/C=C1/CN(C(C(=O)C2CC2)c2ccccc2F)CCC1S (stereo not drawn) [RS enantiomer] here?
Its anti-platelet aggregation ability is “most potent”.

Which “inhibition of platelet aggregation” value [3] does the source give for COC(=O)[C@H](c1ccccc1Cl)N1CCc2sccc2C1 [clopidogrel, reference compound] here?
Its value is “minimal aggregation”.

And the “ED50, prevention of thrombus formation” value [4]?
Its value is 7.0 mg/kg.

With CC(=O)Oc1cc2c(s1)CCN(C(C(=O)C1CC1)c1ccccc1F)C2 (stereo not drawn) [compound of formula I, 2-Acetoxy-5-(α-cyclopropylcarbonyl-2-fluorobenzyl)-4,5,6,7-tetrahydrothieno[3,2-c]pyridine] as the compound, how does the “inhibition of platelet aggregation” value [3] read?
Its value is “greater than 50%”.

What about the “potency compared to clopidogrel (times higher)” value ([3]; in vivo, versus clopidogrel) of the same compound?
Its value is “approximately 10 times”.

What about the “effect on thrombus formation” value ([4]; 0.12-3 mg/kg) of the same compound?
Its value is “prevented thrombus formation in a dose dependent manner”.

And the “ED50, prevention of thrombus formation” value [4]?
Its value is 0.65 mg/kg.

And the “effect on total area of cerebral infarct” value [1]?
Its value is “reduced the total area of cerebral infarct in rats, in a dose related manner”.

With CC(=O)Oc1cc2c(s1)CCN(C(C(=O)C1CC1)c1ccccc1F)C2.Cl (stereo not drawn) [crystal B1, 2-Acetoxy-5-(α-cyclopropylcarbonyl-2-fluorobenzyl)-4,5,6,7-tetrahydrothieno[3,2-c]pyridine hydrochloride (crystal B1)] as the compound, how does the storage stability [5] read?
Its storage stability is “more excellent storage stability than crystal A”.

Which storage stability [5] does the source give for CC(=O)Oc1cc2c(s1)CCN(C(C(=O)C1CC1)c1ccccc1F)C2.Cl (stereo not drawn) [crystal B2, 2-Acetoxy-5-(α-cyclopropylcarbonyl-2-fluorobenzyl)-4,5,6,7-tetrahydrothieno[3,2-c]pyridine hydrochloride (crystal B2)] here?
The storage stability was “more excellent storage stability than crystal B1”.
